Reference: ChEMBL document CHEMBL4482325, “Clpx inhibitory compounds for the treatment of multi resistant staphylococcus aureus virulence and for the treatment of leukemia” (2018)
The source made the active and inactive calls. The calls are words filed in the database; no cut-off is given here.

Columns and labels:
Staphylococcus aureus [1] = test: (§1) Inhibition of Staphylococcus aureus ClpXP using ssrA degradation tagged fluorescent GFP substrate in presence of ATP regeneration system pre-incubation for 15 mins before substrate addition by fluorescence assay
Staphylococcus aureus [2] = test: Inhibition of Staphylococcus aureus ClpXP using ssrA degradation tagged fluorescent GFP substrate in presence of ATP regeneration system pre-incubation for 15 mins before substrate addition by fluorescence assay relative to control
[3] = target: T1, ATP-dependent Clp protease proteolytic subunit (Staphylococcus aureus (strain NCTC 8325)) (UniProt Q2G036); test: Inhibition of Staphylococcus aureus ClpP using ssrA degradation tagged fluorescent GFP substrate in presence of ATP regeneration system pre-incubation for 15 mins before substrate addition by fluorescence assay
T1 sequence (whole entry): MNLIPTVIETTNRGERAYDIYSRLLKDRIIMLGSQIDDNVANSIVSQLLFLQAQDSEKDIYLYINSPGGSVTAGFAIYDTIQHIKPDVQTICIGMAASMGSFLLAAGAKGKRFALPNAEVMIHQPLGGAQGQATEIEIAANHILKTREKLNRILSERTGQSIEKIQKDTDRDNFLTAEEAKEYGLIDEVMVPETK

[4] = as §1
Staphylococcus aureus [5] = test: Inhibition of Staphylococcus aureus ClpCP at 100 uM using ssrA degradation tagged fluorescent GFP substrate in presence of ATP regeneration system pre-incubation for 15 mins before substrate addition by fluorescence assay
K562 = test: Cytotoxicity against human K562 cells assessed as reduction in cell viability up to 100 uM incubated for 72 hrs by cell-titer blue reagent based assay; type: functional
Staphylococcus aureus [6] = test: Suppression of virulence factors in Staphylococcus aureus NCTC 8325 assessed as reduction in serine protease B expression; type: functional, organism-based
Homo sapiens [7] = species: Homo sapiens; test: Cytotoxicity against human S-Jurkat cells assessed as reduction in cell viability up to 120 uM incubated for 72 hrs by cell-titer blue reagent based assay; type: functional
CCRF-CEM = test: Cytotoxicity against human CCRF-CEM cells assessed as reduction in cell viability up to 120 uM incubated for 72 hrs by cell-titer blue reagent based assay; type: functional
Staphylococcus aureus [8] = test: Suppression of virulence factors in Staphylococcus aureus NCTC 8325 assessed as reduction in serine protease D expression; type: functional, organism-based
Staphylococcus aureus [9] = test: Suppression of virulence factors in Staphylococcus aureus NCTC 8325 assessed as reduction in serine protease C expression; type: functional, organism-based
Staphylococcus aureus [10] = test: Suppression of virulence factors in Staphylococcus aureus NCTC 8325 assessed as reduction in gamma hemolysin-C protein expression; type: functional, organism-based
[11] = Inhibition of Staphylococcus aureus ClpPX assessed as reduction in ATP hydrolysis incubated for 2 to 14 mins by malachite green assay
[12] = Half life in mouse plasma at 100 uM by HPLC and MS analysis; type: ADME, cell-free
Staphylococcus aureus [13] = test: Suppression of virulence factors in Staphylococcus aureus NCTC 8325 assessed as reduction in serine protease A expression; type: functional, organism-based
Staphylococcus aureus [14] = test: Binding affinity to Staphylococcus aureus ClpPX assessed as induction of covalent modification a 100 um incubated for 60 mins by intact mass spectrometry
Homo sapiens [15] = species: Homo sapiens; test: Inhibition of human ClpXP at 1 to 100 uM preincubated for 15 mins before FITC-labeled casein substrate addition in presence of ATP regeneration mix and creatine kinase
Staphylococcus aureus [16] = test: Suppression of virulence factors in Staphylococcus aureus NCTC 8325 assessed as reduction in serine protease E expression; type: functional, organism-based
Staphylococcus aureus [17] = test: Inhibition of ClpXP in Staphylococcus aureus NCTC 8325 assessed as reduction in extracellular proteolytic activity by measuring overall proteolysis of sheep erythrocytes exposed to supernatants of 20 hrs 0.1 to 30 nmol compound pre-treated Staphylococcus aureus
Staphylococcus aureus [18] = test: Binding affinity to Staphylococcus aureus ClpXP assessed as induction of collapse of ClpXP proteolytic complex
Staphylococcus aureus [19] = test: Suppression of virulence factors in Staphylococcus aureus NCTC 8325 assessed as reduction in serine protease F expression; type: functional, organism-based
Staphylococcus aureus [20] = test: Suppression of virulence factors in Staphylococcus aureus NCTC 8325 assessed as reduction in staphopain-A expression; type: functional, organism-based
Staphylococcus aureus [21] = test: (§2) Inhibition of ClpXP in Staphylococcus aureus NCTC 8325 assessed as reduction in extracellular proteolytic activity by measuring hemolysis of sheep erythrocytes exposed to supernatants of 20 hrs compound pre-treated Staphylococcus aureus
[22] = as §2
A549 = test: Cytotoxicity against human A549 cells assessed as reduction in residual metabolic activity at 1 to 50 uM incubated for 24 hrs by MTT assay; type: functional, cell-based

Structure (SMILES): O=C1C2=C(Nc3ccccc3SC2c2ccc(-c3ccccc3)cc2)c2ccccc21 (stereo not drawn)
- inhibition (active/not active) (Staphylococcus aureus [1]): Active

Structure (SMILES): O=C1C2=C(Nc3ccccc3SC2c2cccc(O)c2)c2cc(Cl)c(Cl)cc21 (stereo not drawn)
- inhibition (active/not active) (Staphylococcus aureus [1]): Active

Structure (SMILES): CC(=O)Oc1ccc(C2Sc3ccccc3NC3=C2C(=O)c2ccccc23)cc1 (stereo not drawn)
- inhibition (Staphylococcus aureus [2]): 35%
- inhibition (active/not active) (Staphylococcus aureus [1]): Active

Structure (SMILES): O=C1C2=C(Nc3ccccc3SC2c2ccccc2)c2ccccc21 (stereo not drawn)
- inhibition (active/not active) (Staphylococcus aureus [1]): Active

Structure (SMILES): O=C1C2=C(Nc3ccccc3SC2c2ccccc2O)c2ccccc21 (stereo not drawn)
- inhibition (active/not active) (Staphylococcus aureus [1]): inactive

Structure (SMILES): O=C1C2=C(Nc3ccccc3SC2c2ccc(O)cc2)c2ccccc21 (stereo not drawn)
- inhibition (active/not active) (Staphylococcus aureus [1]): Active

Structure (SMILES): COc1ccc(-n2ccnc(SCC(=O)Nc3cc(OC)cc(OC)c3)c2=O)cc1
- inhibition [3]: inactive
- IC50 [4]: 2.2 µM
- inhibition (Staphylococcus aureus [5]): inactive

Structure (SMILES): O=C1C2=C(Nc3ccccc3SC2c2cc(O)cc(Br)c2)c2ccccc21 (stereo not drawn)
- inhibition (active/not active) (Staphylococcus aureus [1]): Active

Structure (SMILES): O=C(O)c1ccc(C2Sc3ccccc3NC3=C2C(=O)c2ccccc23)cc1 (stereo not drawn)
- inhibition (active/not active) (Staphylococcus aureus [1]): inactive

Structure (SMILES): O=C1C2=C(Nc3ccccc3SC2c2ccc(C(F)(F)F)cc2)c2ccccc21 (stereo not drawn)
- inhibition (active/not active) (Staphylococcus aureus [1]): Active

Structure (SMILES): N#CC1=C(N)Oc2cc3c(cc2C1c1ccc(OCc2ccc(F)cc2)cc1)OCO3 (stereo not drawn)
- inhibition [3]: inactive
- IC50 [4]: 0.6 µM
- inhibition (Staphylococcus aureus [5]): inactive

Structure (SMILES): O=C1C2=C(Nc3ccccc3SC2c2cccc(O)c2)c2ccccc21 (stereo not drawn)
- Activity (K562): Active
- inhibition [3]: inactive
- inhibition (Staphylococcus aureus [2]): 100%
- Activity (Staphylococcus aureus [6]): Dose-dependent effect
- EC50 (Staphylococcus aureus [6]): 3 µM
- Activity (Homo sapiens [7]): Active
- Activity (CCRF-CEM): Active
- Activity (Staphylococcus aureus [8]): Dose-dependent effect
- EC50 (Staphylococcus aureus [8]): 3 µM
- Activity (Staphylococcus aureus [9]): Dose-dependent effect
- EC50 (Staphylococcus aureus [9]): 3 µM
- Activity (Staphylococcus aureus [10]): Dose-dependent effect
- EC50 (Staphylococcus aureus [10]): 3 µM
- IC50 [11]: 1.6 to 2.4 µM
- half-life at 100 µM [12]: > 4 h
- Activity (Staphylococcus aureus [13]): Dose-dependent effect
- EC50 (Staphylococcus aureus [13]): 3 µM
- IC50 [4]: 1.5 µM
- Activity (Staphylococcus aureus [14]): inactive
- inhibition (Homo sapiens [15]): Active
- Activity (Staphylococcus aureus [16]): Dose-dependent effect
- EC50 (Staphylococcus aureus [16]): 3 µM
- inhibition (Staphylococcus aureus [5]): inactive
- inhibition (Staphylococcus aureus [17]): Active
- Activity (Staphylococcus aureus [18]): Active
- Activity (Staphylococcus aureus [19]): Dose-dependent effect
- EC50 (Staphylococcus aureus [19]): 3 µM
- Activity (Staphylococcus aureus [20]): Dose-dependent effect
- EC50 (Staphylococcus aureus [20]): 3 µM
- inhibition (Staphylococcus aureus [21]): Dose-dependent effect
- IC50 [22]: 3 µM

Structure (SMILES): C#Cc1ccc2c(c1)C1=C(C2=O)C(c2cc(O)cc(N=[N+]=[N-])c2)Sc2ccccc2N1 (stereo not drawn)
- inhibition (active/not active) (Staphylococcus aureus [1]): Active

Structure (SMILES): O=C1C2=C(Nc3ccccc3SC2c2ccc(F)cc2)c2ccccc21 (stereo not drawn)
- inhibition (active/not active) (Staphylococcus aureus [1]): Active

Structure (SMILES): N#CC1=C(N)Oc2[nH]nc(-c3ccc(Br)cc3)c2C1c1ccc(OC(=O)c2ccco2)cc1 (stereo not drawn)
- inhibition [3]: inactive
- IC50 [4]: 3.1 µM
- inhibition (Staphylococcus aureus [5]): inactive

Structure (SMILES): O=C1C2=C(Nc3ccccc3S(=O)(=O)C2c2cccc(O)c2)c2ccccc21 (stereo not drawn)
- inhibition (active/not active) (Staphylococcus aureus [1]): Active
- Activity (A549): inactive

Structure (SMILES): COc1cccc(C2Sc3ccccc3NC3=C2C(=O)c2ccccc23)c1 (stereo not drawn)
- inhibition (active/not active) (Staphylococcus aureus [1]): Active

Structure (SMILES): Cc1ccc(NC(=O)Cc2ccc(NC(=O)N3CCCCc4ccccc43)cc2)cc1C
- inhibition [3]: inactive
- IC50 [4]: 1.6 µM
- inhibition (Staphylococcus aureus [5]): inactive

Structure (SMILES): C#CCCCCOc1cc(O)cc(C2Sc3ccccc3NC3=C2C(=O)c2ccccc23)c1 (stereo not drawn)
- inhibition (active/not active) (Staphylococcus aureus [1]): Active

Structure (SMILES): COc1ccc2c(c1)SC(c1cccc(O)c1)C1=C(N2)c2ccccc2C1=O (stereo not drawn)
- inhibition (active/not active) (Staphylococcus aureus [1]): Active

Structure (SMILES): C#Cc1ccc2c(c1)C(=O)C1=C2Nc2ccccc2SC1c1cc(O)cc(N=[N+]=[N-])c1 (stereo not drawn)
- inhibition (active/not active) (Staphylococcus aureus [1]): Active

Structure (SMILES): O=C1C2=C(Nc3ccccc3SC2c2cccc(F)c2)c2ccccc21 (stereo not drawn)
- inhibition (active/not active) (Staphylococcus aureus [1]): Active

Structure (SMILES): Nc1cccc(C2Sc3ccccc3NC3=C2C(=O)c2ccccc23)c1 (stereo not drawn)
- inhibition (active/not active) (Staphylococcus aureus [1]): Active

Structure (SMILES): COC(=O)c1ccc(OC(=O)CCc2cc(OC)c(OC)c(OC)c2)cc1
- inhibition (Staphylococcus aureus [5]): inactive

Structure (SMILES): O=C1C2=C(Nc3ccccc3S(=O)(=O)C2c2ccc(-c3ccccc3)cc2)c2ccccc21 (stereo not drawn)
- inhibition (active/not active) (Staphylococcus aureus [1]): Active

Structure (SMILES): C#CCNC(=O)c1ccc2c(c1)C1=C(C2=O)C(c2cccc(OC)c2)Sc2ccccc2N1 (stereo not drawn)
- inhibition (active/not active) (Staphylococcus aureus [1]): Active

Structure (SMILES): O=C1C2=C(Nc3ccccc3SC2c2cc(O)cc(O)c2)c2ccccc21 (stereo not drawn)
- inhibition (active/not active) (Staphylococcus aureus [1]): Active

Structure (SMILES): O=C1C2=C(Nc3ccccc3S(=O)(=O)C2c2ccc(C(F)(F)F)cc2)c2ccccc21 (stereo not drawn)
- inhibition (active/not active) (Staphylococcus aureus [1]): Active

Structure (SMILES): C#CCNC(=O)c1ccc2c(c1)C(=O)C1=C2Nc2ccccc2SC1c1cccc(OC)c1 (stereo not drawn)
- inhibition (active/not active) (Staphylococcus aureus [1]): Active

Structure (SMILES): COc1cccc(C2C3=C(Nc4ccccc4S2(=O)=O)c2ccccc2C3=O)c1 (stereo not drawn)
- inhibition (active/not active) (Staphylococcus aureus [1]): Active

Structure (SMILES): O=C1C2=C(Nc3ccccc3SC2c2cccc(CO)c2)c2ccccc21 (stereo not drawn)
- inhibition (active/not active) (Staphylococcus aureus [1]): Active
- Activity (A549): inactive

Structure (SMILES): COc1cc(O)cc(C2Sc3ccccc3NC3=C2C(=O)c2ccccc23)c1 (stereo not drawn)
- inhibition (active/not active) (Staphylococcus aureus [1]): Active

Structure (SMILES): O=C1C2=C(Nc3ccccc3NC2c2ccccc2)c2ccccc21 (stereo not drawn)
- inhibition (active/not active) (Staphylococcus aureus [1]): Active

Structure (SMILES): O=C1C2=C(Nc3ccccc3S(=O)(=O)C2c2ccc(F)cc2)c2ccccc21 (stereo not drawn)
- inhibition (active/not active) (Staphylococcus aureus [1]): Active

Structure (SMILES): O=C1C2=C(Nc3ccccc3SC2c2cccnc2)c2ccccc21 (stereo not drawn)
- inhibition (active/not active) (Staphylococcus aureus [1]): inactive

Structure (SMILES): O=C1C2=C(Nc3ccccc3SC2c2cccs2)c2ccccc21 (stereo not drawn)
- Activity (K562): Active
- inhibition [3]: inactive
- Activity (Homo sapiens [7]): Active
- Activity (CCRF-CEM): Active
- IC50 [11]: 1.6 to 2.4 µM
- IC50 [4]: 2.5 µM
- inhibition (Homo sapiens [15]): Active
- inhibition (Staphylococcus aureus [5]): inactive

Structure (SMILES): C#Cc1ccc2c(c1)C1=C(C2=O)C(c2cccc(O)c2)Sc2ccccc2N1 (stereo not drawn)
- inhibition (active/not active) (Staphylococcus aureus [1]): Active

Structure (SMILES): C#Cc1ccc2c(c1)C(=O)C1=C2Nc2ccccc2SC1c1cccc(O)c1 (stereo not drawn)
- inhibition (active/not active) (Staphylococcus aureus [1]): Active

Structure (SMILES): C#CCNC(=O)c1ccc2c(c1)C(=O)C1=C2Nc2ccccc2SC1c1cccc(O)c1 (stereo not drawn)
- inhibition (active/not active) (Staphylococcus aureus [1]): Active

Structure (SMILES): C#CCNC(=O)c1ccc2c(c1)C1=C(C2=O)C(c2cccc(O)c2)Sc2ccccc2N1 (stereo not drawn)
- inhibition (active/not active) (Staphylococcus aureus [1]): Active
